Test results from patent publication US10968215B2 (SHANGHAI HAIHE PHARMACEUTICAL CO., LTD., priority 2016, dated 2021).
Read-outs that look alike come from different tables or passages of the source.

Target: PRC2 complex (EZH2 Y641F/EED/SUZ12/RbAp48/AEBP2) (Homo sapiens (Human), UniProt Q15910, Y641F)
Assay: Activity of a compound to PRC2 complex (EZH2 Y641F), HTRF
[1] = read-out: IC50 (EZH2_Y641F), EZH2 Y641F PRC2 complex, HTRF, class symbols

Chain of PRC2 complex (EZH2 Y641F/EED/SUZ12/RbAp48/AEBP2) (Q15910 whole entry Y641F): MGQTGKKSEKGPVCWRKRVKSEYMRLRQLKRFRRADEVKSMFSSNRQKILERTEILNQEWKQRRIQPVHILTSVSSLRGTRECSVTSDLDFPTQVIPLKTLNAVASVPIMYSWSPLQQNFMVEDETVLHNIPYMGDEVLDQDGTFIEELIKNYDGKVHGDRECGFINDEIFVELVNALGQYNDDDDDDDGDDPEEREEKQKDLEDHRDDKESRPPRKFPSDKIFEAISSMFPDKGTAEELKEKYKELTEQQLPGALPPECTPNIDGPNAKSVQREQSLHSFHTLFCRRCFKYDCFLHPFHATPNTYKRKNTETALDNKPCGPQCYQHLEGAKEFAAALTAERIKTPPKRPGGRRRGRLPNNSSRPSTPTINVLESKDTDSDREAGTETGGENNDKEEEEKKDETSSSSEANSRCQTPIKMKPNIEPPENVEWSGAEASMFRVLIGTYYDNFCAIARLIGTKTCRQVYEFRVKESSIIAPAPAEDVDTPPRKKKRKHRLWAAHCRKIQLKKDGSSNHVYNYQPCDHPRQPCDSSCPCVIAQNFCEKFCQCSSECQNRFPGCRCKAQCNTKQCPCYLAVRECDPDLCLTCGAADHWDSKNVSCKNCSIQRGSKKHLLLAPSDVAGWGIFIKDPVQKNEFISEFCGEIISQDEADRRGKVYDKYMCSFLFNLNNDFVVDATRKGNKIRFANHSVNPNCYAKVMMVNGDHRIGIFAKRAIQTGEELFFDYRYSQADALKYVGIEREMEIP
Chain of PRC2 complex (EZH2 Y641F/EED/SUZ12/RbAp48/AEBP2) (O75530 whole entry partner): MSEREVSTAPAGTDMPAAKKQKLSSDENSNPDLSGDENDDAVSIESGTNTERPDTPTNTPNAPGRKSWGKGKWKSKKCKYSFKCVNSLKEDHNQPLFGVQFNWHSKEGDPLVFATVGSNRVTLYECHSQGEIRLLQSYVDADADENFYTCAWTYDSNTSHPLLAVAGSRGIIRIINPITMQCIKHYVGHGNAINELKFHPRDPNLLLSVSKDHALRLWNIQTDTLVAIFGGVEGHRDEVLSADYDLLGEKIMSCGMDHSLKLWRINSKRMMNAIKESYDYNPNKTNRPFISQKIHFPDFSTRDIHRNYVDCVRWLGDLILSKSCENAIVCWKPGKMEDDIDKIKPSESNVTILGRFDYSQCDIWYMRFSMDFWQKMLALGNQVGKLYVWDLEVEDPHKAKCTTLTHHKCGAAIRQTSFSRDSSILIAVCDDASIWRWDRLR
Chain of PRC2 complex (EZH2 Y641F/EED/SUZ12/RbAp48/AEBP2) (Q15022 whole entry partner): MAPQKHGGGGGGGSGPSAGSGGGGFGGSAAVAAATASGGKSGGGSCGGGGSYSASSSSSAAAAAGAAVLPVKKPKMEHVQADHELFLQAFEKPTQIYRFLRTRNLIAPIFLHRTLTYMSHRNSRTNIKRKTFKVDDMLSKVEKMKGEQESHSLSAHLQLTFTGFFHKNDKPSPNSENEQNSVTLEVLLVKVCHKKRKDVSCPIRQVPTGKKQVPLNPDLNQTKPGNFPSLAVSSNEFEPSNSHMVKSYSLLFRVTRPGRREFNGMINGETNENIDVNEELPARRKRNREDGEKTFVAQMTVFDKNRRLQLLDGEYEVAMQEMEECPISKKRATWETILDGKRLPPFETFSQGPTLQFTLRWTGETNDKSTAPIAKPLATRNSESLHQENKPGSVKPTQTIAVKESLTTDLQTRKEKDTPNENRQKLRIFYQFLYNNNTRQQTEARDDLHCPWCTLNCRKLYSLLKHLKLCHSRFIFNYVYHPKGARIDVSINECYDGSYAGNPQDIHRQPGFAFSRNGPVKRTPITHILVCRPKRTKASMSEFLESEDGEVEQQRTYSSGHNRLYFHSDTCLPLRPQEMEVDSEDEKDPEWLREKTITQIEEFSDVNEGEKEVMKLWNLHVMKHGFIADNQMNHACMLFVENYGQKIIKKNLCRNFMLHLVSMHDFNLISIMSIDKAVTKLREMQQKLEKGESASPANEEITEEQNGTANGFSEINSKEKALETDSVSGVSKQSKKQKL
Chain of PRC2 complex (EZH2 Y641F/EED/SUZ12/RbAp48/AEBP2) (Q09028 whole entry partner): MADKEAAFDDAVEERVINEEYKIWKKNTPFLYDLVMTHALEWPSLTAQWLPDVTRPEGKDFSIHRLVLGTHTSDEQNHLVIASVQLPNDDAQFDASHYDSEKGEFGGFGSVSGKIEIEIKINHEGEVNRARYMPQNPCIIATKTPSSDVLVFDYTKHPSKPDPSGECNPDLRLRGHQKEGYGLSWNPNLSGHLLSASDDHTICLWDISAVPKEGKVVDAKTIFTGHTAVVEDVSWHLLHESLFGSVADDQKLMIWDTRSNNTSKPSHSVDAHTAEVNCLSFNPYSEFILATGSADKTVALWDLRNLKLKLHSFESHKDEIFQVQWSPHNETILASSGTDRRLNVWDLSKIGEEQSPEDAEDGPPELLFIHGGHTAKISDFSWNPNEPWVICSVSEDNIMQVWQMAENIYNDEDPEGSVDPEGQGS
Chain of PRC2 complex (EZH2 Y641F/EED/SUZ12/RbAp48/AEBP2) (Q6ZN18 whole entry partner): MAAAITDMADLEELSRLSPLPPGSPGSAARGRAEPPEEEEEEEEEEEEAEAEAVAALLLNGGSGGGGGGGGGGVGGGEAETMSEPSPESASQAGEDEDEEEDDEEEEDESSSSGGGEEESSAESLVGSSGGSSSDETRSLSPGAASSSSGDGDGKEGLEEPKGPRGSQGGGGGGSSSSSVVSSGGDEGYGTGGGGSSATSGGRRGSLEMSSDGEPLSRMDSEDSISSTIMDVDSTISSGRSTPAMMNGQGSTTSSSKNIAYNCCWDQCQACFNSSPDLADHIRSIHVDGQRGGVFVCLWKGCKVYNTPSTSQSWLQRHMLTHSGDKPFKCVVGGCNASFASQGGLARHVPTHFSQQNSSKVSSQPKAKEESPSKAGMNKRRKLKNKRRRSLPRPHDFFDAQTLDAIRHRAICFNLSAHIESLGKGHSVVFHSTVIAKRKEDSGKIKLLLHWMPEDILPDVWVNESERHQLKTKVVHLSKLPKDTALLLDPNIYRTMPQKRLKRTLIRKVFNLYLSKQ

Row | Molecule | IC50 [1] | IC50
1 | CCN(c1c(C)c(C(=O)NCc2c(C)cc(C)[nH]c2=O)cc2cc(Br)cn12)C1CCOCC1 [Example 57] | 100 to 1000 nM | 
2 | Cc1cc(C)c(CNC(=O)c2cc3cc(C4=CCNCC4)cn3c(C(C)N3CCOCC3)c2C)c(=O)[nH]1 (stereo not shown) [Example 45, N-((4,6-dimethyl-2-oxo-1,2-dihydropyridin-3-yl)methyl)-6-methyl-5-(1-morphinolinylethyl)-2-(1,2,3,6-tetrahydropyridin-4-yl)indolizine-7-carboxamide] | 1000 to 10000 nM | 
3 | COc1cccc(-c2cc3cc(C(=O)NCc4c(C)cc(C)[nH]c4=O)c(C)c(C(C)N4CCOCC4)n3c2)c1 (stereo not shown) [Example 96, N-((4,6-dimethyl-2-oxo-1,2-dihydropyridin-3-yl)methyl)-2-(3-methoxyphenyl)-6-methyl-5-(1-morpholinylethyl)indolizine-7-carboxamide] | < 100 nM | 
4 | Cc1cc(C)c(CNC(=O)c2cc3cc(-c4nccs4)cn3c(C(C)N3CCOCC3)c2C)c(=O)[nH]1 (stereo not shown) [Example 50, N-((4,6-dimethyl-2-oxo-1,2-dihydropyridin-3-yl)methyl)-6-methyl-5-(1-morphinolinylethyl)-2-(thiazol-2-yl)indolizine-7-carboxamide] | < 100 nM | 
5 | COc1ccc(F)c(-c2cc3cc(C(=O)NCc4c(C)cc(C)[nH]c4=O)c(C)c(C(C)N4CCOCC4)n3c2)c1 (stereo not shown) [Example 124, N-((4,6-dimethyl-2-oxo-1,2-dihydropyridin-3-yl)methyl)-2-(2-fluoro-5-methoxyphenyl)-6-methyl-5-(1-morpholinoethyl)indolizine-7-carboxamide] | 100 to 1000 nM | 
6 | CCN(c1c(C)c(C(=O)NCc2c(C)cc(C)[nH]c2=O)cc2cc(Br)cn12)C1CCN(C(C)=O)CC1 [Example 62, 5-((1-acetylpiperidin-4-yl)(ethyl)amino)-2-bromo-N-((4,6-dimethyl-2-oxo-1,2-dihydropyridine-3-yl)methyl)-6-methylindolizine-7-carboxamide] |  | < 100 nM
7 | Cc1cc(C)c(CNC(=O)c2cc3cc(-c4ccc(CN5CCOCC5)cc4)cn3c(C(C)N3CCOCC3)c2C)c(=O)[nH]1 (stereo not shown) [Example 39, N-((4,6-dimethyl-2-oxo-1,2-dihydropyridin-3-yl)methyl)-6-methyl-5-(1-morphinolinylethyl)-2-(4-(morphinolinylmethyl)phenyl)indolizine-7-carboxamide] | < 100 nM | 
8 | Cc1cc(C)c(CNC(=O)c2cc3cc(-c4ccnn4C)cn3c(C(C)N3CCOCC3)c2C)c(=O)[nH]1 (stereo not shown) [Example 41, N-((4,6-dimethyl-2-oxo-1,2-dihydropyridin-3-yl)methyl)-6-methyl-2-(1-methyl-1H-pyrazol-5-yl)-5-(1-morpholineylethyl)indolizine-7-carboxamide] | < 100 nM | 
9 | N-((4-methoxy-6-methyl-2-oxo-1,2-dihydropyridin-3-yl)methyl)-6-methyl-1-(2-methylpyridin-3-yl)-5-(1-(4-(2,2,2-trifluoroethyl)piperazin-1-yl)ethyl)indolizine-7-carboxamide [Compound 166] | < 100 nM | 
10 | COc1ccc(-c2cc3cc(C(=O)NCc4c(C)cc(C)[nH]c4=O)c(C)c(C(C)N4CCOCC4)n3c2)c(OC)c1 (stereo not shown) [Example 38, 2-(2,4-dimethoxyphenyl)-N-((4,6-dimethyl-2-oxo-1,2-dihydropyridin-3-yl)methyl)-6-methyl-5-(1-morphinolinylethyl)indolizine-7-carboxamide] | < 100 nM | 

Further lines, results first:

Row | IC50 [1] | IC50 | Molecule
11 | < 100 nM |  | COc1cc(C)[nH]c(=O)c1CNC(=O)c1cc2c(-c3cnc(C)nc3)ccn2c([C@H](C)N2CCN(CC(F)(F)F)CC2)c1C (single isomer, unassigned) [Compound 197, (S)—N-((4-methoxy-6-methyl-2-oxo-1,2-dihydropyridin-3-yl)methyl)-6-methyl-1-(2-methylpyrimidin-5-yl)-5-(1-(4-(2,2,2-trifluoroethyl)piperazin-1-yl)ethyl)indolizine-7-formamide or (R)—N-((4-methoxy-6-methyl-2-oxo-1,2-dihydropyridin-3-yl)methyl)-6-methyl-1-(2-methylpyrimidin-5-yl)-5-(1-(4-(2,2,2-trifluoroethyl)piperazin-1-yl)ethyl)indolizine-7-formamide]
12 | 100 to 1000 nM |  | Cc1cc(C)c(CNC(=O)c2cc3cc(Br)cn3c(C(C)N3CCC(N4CCCC4)CC3)c2C)c(=O)[nH]1 (stereo not shown) [Example 145, 2-bromo-N-((4,6-dimethyl-2-oxo-1,2-dihydropyridin-3-yl)methyl)-6-methyl-5-(1-(4-(pyrrolidin-1-yl)piperidin-1-yl)ethyl)indolizine-7-carboxamide]
13 | < 100 nM |  | CNc1ccc(-c2ccn3c(C(C)N4CCN(CC(F)(F)F)CC4)c(C)c(C(=O)NCc4c(OC)cc(C)[nH]c4=O)cc23)cn1 (stereo not shown) [Compound 163, N-((4-methoxy-6-methyl-2-oxo-1,2-dihydropyridin-3-yl)methyl)-6-methyl-1-(6-(methylamino)pyridin-3-yl)-5-(1-(4-(2,2,2-trifluoroethyl)piperazin-1-yl)ethyl)indolizine-7-carboxamide]
14 |  | < 100 nM | CCCc1cc(C)[nH]c(=O)c1CNC(=O)c1cc2c(-c3ccc(N)nc3)ccn2c(C(C)N2CCN(CC(F)(F)F)CC2)c1C (stereo not shown) [Compound 185, 1-(6-aminopyridin-3-yl)-6-methyl-N-((6-methyl-2-oxo-4-propyl-1,2-dihydropyridine-3-yl)methyl)-5-(1-(4-(2,2,2-trifluoroethyl)piperazin-1-yl)ethyl)indolizine-7-carboxamide]
15 | < 100 nM |  | COc1cc(C)[nH]c(=O)c1CNC(=O)c1cc2c(-c3ccnc(C(C)C)c3)ccn2c(C(C)N2CCN(CC(F)(F)F)CC2)c1C (stereo not shown) [Compound 206, 1-(2-isopropylpyridin-4-yl)-N-((4-methoxy-6-methyl-2-oxo-1,2-dihydropyridin-3-yl)methyl)-6-methyl-5-(1-(4-(2,2,2-trifluoroethyl)piperazin-1-yl)ethyl)indolizine-7-carboxamide]
16 | < 100 nM |  | Cc1cc(C)c(CNC(=O)c2cc3c(-c4ccc(N)nc4)ccn3c([C@H](C)N3CCN(CC(F)(F)F)CC3)c2C)c(=O)[nH]1 (single isomer, unassigned) [Compound 160, (S)-1-(6-aminopyridin-3-yl)-N-((4,6-dimethyl-2-oxo-1,2-dihydropyridin-3-yl)methyl)-6-methyl-5-(1-(4-(2,2,2-trifluoroethyl)piperazin-1-yl)ethyl)indolizine-7-carboxamide or (R) 1-(6-aminopyridin-3-yl)-N-((4,6-dimethyl-2-oxo-1,2-dihydropyridin-3-yl)methyl)-6-methyl-5-(1-(4-(2,2,2-trifluoroethyl)piperazin-1-yl)ethyl)indolizine-7-carboxamide]
17 | 100 to 1000 nM |  | CNc1cc(-c2ccn3c([C@H](C)N4CCN(CC(F)(F)F)CC4)c(C)c(C(=O)NCc4c(OC)cc(C)[nH]c4=O)cc23)ccn1 (single isomer, unassigned) [Compound 182, (S)—N-((4-methoxy-6-methyl-2-oxo-1,2-dihydropyridin-3-yl)methyl)-6-methyl-1-(2-(methylamino)pyridin-4-yl)-5-(1-(4-(2,2,2-trifluoroethyl)piperazin-1-yl)ethyl)indolizine-7-formamide or (R)—N-((4-methoxy-6-methyl-2-oxo-1,2-dihydropyridin-3-yl)methyl)-6-methyl-1-(2-(methylamino)pyridin-4-yl)-5-(1-(4-(2,2,2-trifluoroethyl)piperazin-1-yl)ethyl)indolizine-7-formamide]
18 | < 100 nM |  | Cc1cc(C)c(CNC(=O)c2cc3cccn3c(C(C)OCc3ccnn3C)c2C)c(=O)[nH]1 (stereo not shown) [Example 21]
19 | < 100 nM |  | Cc1cc(C)c(CNC(=O)c2cc3c(-c4ccccc4)ccn3c(C(C)N3CCOCC3)c2C)c(=O)[nH]1 (stereo not shown) [Example 81]
20 | < 100 nM |  | Cc1cc(C)c(CNC(=O)c2cc3cccn3c(C(C)OCc3cccs3)c2C)c(=O)[nH]1 (stereo not shown) [Example 17, N-((4,6-dimethyl-2-oxo-1,2-dihydropyridin-3-yl)methyl)-6-methyl-5-(1-(thiophene-2-ylmethoxy)ethyl)indolizine-7-carboxamide]
21 | < 100 nM |  | Cc1cc(C)c(CNC(=O)c2cc3c(Cl)ccn3c(C(C)N3CCOCC3)c2C)c(=O)[nH]1 (stereo not shown) [Example 27, 1-chloro-N-((4,6-dimethyl-2-oxo-1,2-dihydropyridin-3-yl)methyl)-6-methyl-5-(1-morphinolinylethyl)indolizine-7-carboxamide]
22 |  | 100 to 1000 nM | COc1cc(C)[nH]c(=O)c1CNC(=O)c1cc2cc(-c3nccn3C)cn2c(C(C)N2CCN(CC(F)(F)F)CC2)c1C (stereo not shown) [Example 109, N-((4-methoxy-6-methyl-2-oxo-1,2-dihydropyridin-3-yl)methyl)-6-methyl-2-(1-methyl-1H-imidazol-2-yl)-5-(1-(4-(2,2,2-trifluoroethyl)piperazin-1-yl)ethyl)indolizine-7-carboxamide]
23 |  | < 100 nM | COc1cc(C)[nH]c(=O)c1CNC(=O)c1cc2c(-c3ccc(F)cc3)ccn2c(C(C)N2CCN(CC(F)(F)F)CC2)c1C (stereo not shown) [Compound 162, 1-(4-fluorophenyl)-N-((4-methoxy-6-methyl-2-oxo-1,2-dihydropyridin-3-yl)methyl)-6-methyl-5-(1-(4-(2,2,2-trifluoroethyl)piperazin-1-yl)ethyl)indolizine-7-carboxamide]
24 | < 100 nM |  | COc1cc(C)[nH]c(=O)c1CNC(=O)c1cc2c(-c3ccc(C)nc3C)ccn2c([C@H](C)N2CCN(CC(F)(F)F)CC2)c1C (single isomer, unassigned) [Compound 177, (S)-1-(2,6-dimethylpyridin-3-yl)-N-((4-methoxy-6-methyl-2-oxo-1,2-dihydropyridine-3-yl)methyl)-6-methyl-5-(1-(4-(2,2,2-trifluoroethyl)piperazin-1-yl)ethyl)indolizine-7-carboxamide or (R) 1-(2,6-dimethylpyridin-3-yl)-N-((4-methoxy-6-methyl-2-oxo-1,2-dihydropyridine-3-yl)methyl)-6-methyl-5-(1-(4-(2,2,2-trifluoroethyl)piperazin-1-yl)ethyl)indolizine-7-carboxamide]
25 | 100 to 1000 nM |  | Cc1cc(C)c(CNC(=O)c2cc3cc(-c4ccn(C)n4)cn3c(C(C)N3CCC(N(C)C)CC3)c2C)c(=O)[nH]1 (stereo not shown) [Example 76]
